The numbers were not newly measured in patent EP2839829B1 (Korea United Pharm. Inc., priority 2012, dated 2013), which cites them from elsewhere.

For the data set the following is noted: in the body.

In the case of `OC[C@@H](O)CN1CCN(c2ccccc2)CC1` [levodropropizine], the half life result is “about 1 hr”.
